Several values for one entry are separate records, joined by “and”; a condition that tells them apart may be missing. Identical values can stand only once.
Key:
[1] = PN001/Part II: safety and tolerability; type: in vivo, human
Protocol: No serious adverse events were reported in the subjects who received CX-8998. One placebo-treated subject experienced a serious adverse event (peritonsillar abscess). The subject was admitted to the hospital for treatment with oral and intravenous antibiotics and was discontinued from the study because of this event. […] Each treatment period was separated from the previous one by an approximate 2-week washout, and all treatments were administered in the morning after an overnight fast. Electroencephalograms were recorded before and at selected time points for up to 24 hours after dosing in each treatment period. Cognitive and subjective assessments, including the Karolinska Sleepiness Scale and Bond-Lader visual analog scale, were also performed. 5.3.1.2.2 Pharmacodynamic Data Alpha rhythm is seen posterior brain regions in healthy adults during quiet wakefulness. It originates in the thalamus and is driven by Cav3 channel activity (Schreckenberger, 2004). Agitated, awake individuals may not display an alpha rhythm. […] Reductions in alpha power during the eyes closed position, were generally observed throughout the 24-hour postdose evaluation period for the 18 mg dose and were generally consistent across electrode sites.

[2] = system: patients with essential tremor; test: T-CALM: TETRAS activities of daily living subscale; type: in vivo, human; conditions: for TETRAS-ADL Score, Median (minimum, maximum) / TETRAS-ADL Score, Mean (SD): post-hoc
Excerpt: The sum of the individual scores provides the overall score, ranging from 0 to 48. The complete TETRAS ADL Subscale is as follows.
Rate tremor's impact on activities of daily living (0-4 scoring). • 1. Speaking • 0=Normal • 1=Slight voice tremulousness, only when “nervous”. • 2=Mild voice tremor. All words easily understood. • 3=Moderate voice tremor. Some words difficult to understand. • 4=Severe voice tremor. Most words difficult to understand. • 2. Feeding with a spoon • 0=Normal • 1=Slightly abnormal. […] Spills a little. • 3=Moderately abnormal. Spills a lot or changes strategy to complete task such as using two hands or leaning over. • 4=Severely abnormal Cannot feed with a spoon. • 3. Drinking from a glass • 0=Normal. • 1=Slightly abnormal. […] Spills a little. • 3=Moderately abnormal. Spills a lot or changes strategy to complete task such as using two hands or leaning over. • 4=Severely abnormal. Cannot drink from a glass or uses straw or sippy cup. • 4. Hygiene • 0=Normal. • 1=Slightly abnormal. […] Some difficulty but can complete task. • 3=Moderately abnormal. Unable to do most fine tasks such as putting on lipstick or shaving unless changes strategy such as using two hands or using the less affected hand. • 4=Severely abnormal. Cannot complete hygiene activities independently. • 5. Dressing • 0=Normal. • 1=Slightly abnormal. […] Able to do everything but has difficulty due to tremor. • 3=Moderately abnormal. Unable to do most dressing unless uses strategy such as using Velcro, buttoning shirt before putting it on or avoiding shoes with laces. • 4=Severely abnormal. Cannot dress independently. • 6. Pouring • 0=Normal. • 1=Slightly abnormal. […] Must be very careful to avoid spilling but may spill occasionally. • 3=Moderately abnormal. Must use two hands or uses other strategies to avoid spilling. • 4=Severely abnormal. Cannot pour. • 7. Carrying food trays, plates or similar items • 0=Normal • 1=Slightly abnormal. […] Must be very careful to avoid spilling items on food tray. • 3=Moderately abnormal. Uses strategies such as holding tightly against body to carry. • 4=Severely abnormal. Cannot carry food trays or similar items. • 8. Using Keys • 0=Normal • 1=Slightly abnormal. Tremor is present but can insert key with one hand without difficulty. • 2=Mildly abnormal. Commonly misses target but still routinely puts key in lock with one hand. • 3=Moderately abnormal. Needs to use two hands or other strategies to put key in lock. • 4=Severely abnormal. Cannot put key in lock. • 9. Writing • 0=Normal • 1=Slightly abnormal. […] Difficulty writing due to the tremor • 3=Moderately abnormal. Cannot write without using strategies such as holding the writing hand with the other hand, holding pen differently or using large pen. • 4=Severely abnormal. Cannot write. • 10. Working. If patient is retired, ask as if they were still working. If the patient is a housewife, ask the question as it relates to housework: • 0=Normal. • 1=Slightly abnormal. […] Tremor interferes with work; able to do everything, but with errors. • 3=Moderately abnormal. Unable to continue working without using strategies such as changing jobs or using special equipment. • 4=Severely abnormal. Cannot perform any job or household work. • 11. Overall disability with the most affected task (Name task, e.g. using computer mouse, writing, etc) • Task • 0=Normal. • 1=Slightly abnormal. […] Tremor interferes with task but is still able to perform task. • 3=Moderately abnormal. Can do task but must use strategies. • 4=Severely abnormal. Cannot do the task. • 12.
Analyses of the TETRAS-ADL was conducted using the same type of ANCOVA model as described for the TETRAS-PS, using two-sided tests at the alpha=0.05 level of significance (FIG. 2 and Table 2).

[3] = Exploratory embryofetal development study in rats
[4] = rat, in vivo, 300 mg/kg/day
in vivo = conditions: male, Beagle, dog, plasma, po, 20 mg/kg/day
[5] = Day 15, patients Minimally Improved by PGIC, N=17
[6] = Day 28, patients Minimally Improved by CGI-I, N=15
[7] = Day 28, patients Minimally Improved by PGIC, N=10
[8] = Sprague-Dawley rat, oral gavage GD 6 through GD 20

CC(C)c1ccc(CC(=O)N[C@H](C)c2ccc(OCC(F)(F)F)cn2)cc1 [CX-8998]
At least 1 adverse event ([1]; 5 mg): 8 (66.7) n (%)
Dizziness ([1]; 5 mg): 1 (8.3) n (%)
Drowsiness ([1]; 5 mg): 3 (25.0) n (%)
Euphoric mood ([1]; 5 mg): 1 (8.3) n (%)
Feeling of relaxation ([1]; 5 mg): 1 (8.3%) n (%)
Floating feeling ([1]; 5 mg): 1 (8.) n (%)
Gastrointestinal Disorders ([1]; 5 mg): 2 (16.7) n (%)
Headache ([1]; 5 mg): 1 (8.3) n (%)
Intermittent headache ([1]; 5 mg): 0 n (%)
Nausea ([1]; 5 mg): 2 (16.7) n (%)
Nervous System Disorders ([1]; 5 mg): 4 (33.3) n (%)
Psychiatric Disorders ([1]; 5 mg): 4 (33.3) n (%)
Sleep disturbance ([1]; 5 mg): 1 (8.3) n (%)
Vivid dreams ([1]; 5 mg): 2 (16.7) n (%)
At least 1 adverse event ([1]; 18 mg): 11 (91.7) n (%)
Dizziness ([1]; 18 mg): 3 (25.0) n (%)
Drowsiness ([1]; 18 mg): 3 (25.0) n (%)
Euphoric mood ([1]; 18 mg): 3 (25.0) n (%)
Feeling of relaxation ([1]; 18 mg): 3 (25.0) n (%)
Floating feeling ([1]; 18 mg): 1 (8.3) n (%)
Gastrointestinal Disorders ([1]; 18 mg): 1 (8.3) n (%)
Headache ([1]; 18 mg): 3 (25.0) n (%)
Intermittent headache ([1]; 18 mg): 2 (16.7) n (%)
Nausea ([1]; 18 mg): 1 (8.3) n (%)
Nervous System Disorders ([1]; 18 mg): 8 (66.7) n (%)
Psychiatric Disorders ([1]; 18 mg): 6 (50.0) n (%)
Sleep disturbance ([1]; 18 mg): 2 (16.7) n (%)
Vivid dreams ([1]; 18 mg): 2 (16.7) n (%)
Tolerability ([1]; single doses of 5 and 18 mg): generally well tolerated
Change from baseline in TETRAS-ADL, LS mean ([2]; Day 15 (8 mg BID)): −4.5±0.87 and −4.5
TETRAS-ADL Score, Median (minimum, maximum) ([2]; Day 15, patients Minimally Improved by CGI-I, N=19): −2.0
TETRAS-ADL Score, Mean (SD) ([2]; Day 15, patients Minimally Improved by CGI-I, N=19, reduction from baseline): −3.7 (4.21)
TETRAS-ADL Score, Mean (SD) [2, 5]: −3.3 (4.27)
TETRAS-ADL Score, Median (minimum, maximum) [2, 5]: −4.0
Change from baseline in TETRAS-ADL, LS mean ([2]; Day 28 (10 mg BID)): −4.5±1.12 and −4.5
TETRAS-ADL Score, Mean (SD) [2, 6]: −4.4 (8.10)
TETRAS-ADL Score, Median (minimum, maximum) [2, 6]: −1.0 (−24, 3)
TETRAS-ADL Score, Mean (SD) [2, 7]: −1.6 (3.84)
TETRAS-ADL Score, Median (minimum, maximum) [2, 7]: −1.0 (−7, 3)
>5 to 10 point worsening ([2]; TETRAS-ADL, Day 15): 0 n (%)
>10 point worsening ([2]; TETRAS-ADL, Day 15): 0 n (%)
0 change ([2]; TETRAS-ADL, Day 28): 5 (13.5%) n (%)
>0 to 1 point improvement ([2]; TETRAS-ADL, Day 28): 2 (5.4%) n (%)
>0 to 1 point worsening ([2]; TETRAS-ADL, Day 28): 3 (8.1%) n (%)
>1 to 2.5 point improvement ([2]; TETRAS-ADL, Day 28): 3 (8.1%) n (%)
>1 to 2.5 point worsening ([2]; TETRAS-ADL, Day 28): 3 (8.1%) n (%)
>2.5 to 5 point improvement ([2]; TETRAS-ADL, Day 28): 7 (18.9%) n (%)
>2.5 to 5 point worsening ([2]; TETRAS-ADL, Day 28): 3 (8.1%) n (%)
>5 to 10 point improvement ([2]; TETRAS-ADL, Day 28): 6 (16.2) n (%)
>5 to 10 point worsening ([2]; TETRAS-ADL, Day 28): 0 n (%)
>10 point improvement ([2]; TETRAS-ADL, Day 28): 5 (13.5%) n (%)
>10 point worsening ([2]; TETRAS-ADL, Day 28): 0 n (%)
dose at which developmental toxicity was observed [3, 8]: observed at ≥100 mg/kg/day.
dose at which maternal toxicity was excessive [3, 8]: 1000 mg/kg/day
dose at which maternal toxicity was observed [3, 8]: ≥ 30 mg/kg/day
Doses with developmental toxicity (decreased live fetal body weight) ([3]; rat, in vivo): ≥ 100 mg/kg/day
Doses with maternal toxicity ([3]; rat, in vivo): ≥ 30 mg/kg/day
Decrease in food consumption [4]: up to 19%
AUC (in vivo): 425 µM·h

Reference: patent US11311522B1 (Cavion, Inc., priority 2018, dated 2022)
